Measurements: US20240158446A1, “CYCLIC COMPOUND HAVING SELECTIVE INHIBITORY ACTION ON KRAS OVER HRAS AND NRAS” (CHUGAI SEIYAKU KABUSHIKI KAISHA, priority 2021, published 2024)

Tests used:
[1] = molecular target: GDP-bound HRAS wild-type protein (Homo sapiens, UniProt P01112); assay: Binding to HRAS by surface plasmon resonance (SPR), Single Cycle Kinetics; details: ratio of KD for GDP-bound HRAS wild-type protein to KD for KRAS, SPR
[2] = test system: human lung cancer strain NCI-H441; assay: cells; details: NCI-H441, 96 h, read-out: NCI-H441 IC50 (nM), NCI-H441 cell proliferation, 4 days, CellTiter-Glo;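 also: cell proliferation inhibition after four days measured by CellTiter-Glo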
[3] = molecular target: GDP-bound NRAS wild-type protein (Homo sapiens, UniProt P01111); assay: Binding to NRAS by surface plasmon resonance (SPR), Single Cycle Kinetics; details: ratio of KD for GDP-bound NRAS wild-type protein to KD for KRAS, SPR
Sequence of GDP-bound NRAS wild-type protein (P01111 whole entry): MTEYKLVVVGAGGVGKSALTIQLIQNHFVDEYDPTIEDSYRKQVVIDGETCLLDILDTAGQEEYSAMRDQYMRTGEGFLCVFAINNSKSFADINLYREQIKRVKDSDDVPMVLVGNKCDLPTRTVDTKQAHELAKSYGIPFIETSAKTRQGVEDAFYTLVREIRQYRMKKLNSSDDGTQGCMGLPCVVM

Sequence of GDP-bound HRAS wild-type protein (P01112 whole entry): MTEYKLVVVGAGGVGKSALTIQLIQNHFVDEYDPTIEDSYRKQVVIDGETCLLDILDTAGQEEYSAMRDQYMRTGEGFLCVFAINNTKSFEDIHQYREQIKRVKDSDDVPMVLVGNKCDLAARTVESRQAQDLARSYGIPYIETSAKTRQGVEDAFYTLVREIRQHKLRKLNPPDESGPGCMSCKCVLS

Row | SMILES | IC50 [2] [nM] | HRAS/KRAS (KD ratio) [1] | NRAS/KRAS (KD ratio) [3]
1 | CCC[C@H]1C(=O)N[C@@H]([C@@H](C)CC)C(=O)N(C)CC(=O)N(C)[C@H]2C/C=C\CCN(C2=O)[C@@H](Cc2ccc(C)cc2)C(=O)N(C)CC(=O)N[C@@H](CCc2cc(F)c(C(F)(F)F)c(F)c2)C(=O)N2CCC[C@H]2C(=O)N(C)C2(CCC2)C(=O)N(C)[C@@H](C2CCCC2)C(=O)N(C)[C@H](C(=O)N(C)C)CC(=O)N1C [PP1794] | 8.7 | B (a compound having 3 or more and less than 10 is denoted as B) | A (a compound having 10 or more and less than 20 is denoted as A)
2 | CC[C@H](C)[C@@H]1NC(=O)[C@H](CC2CC2)N(C)C(=O)C[C@@H](C(=O)N(C)C)N(C)C(=O)[C@H](C2CCCC2)N(C)C(=O)C2(CCC2)N(C)C(=O)[C@@H]2C[C@@H](C)CN2C(=O)[C@H](CCc2cc(F)c(C(F)(F)F)c(F)c2)NC(=O)CN(C)C(=O)[C@H](Cc2ccc(C)cc2)N2CC/C=C\C[C@@H](C2=O)N(C)C(=O)CN(C)C1=O [PP1800] | 6.5 | A (a compound having 10 or more and less than 20 is denoted as A) | A (a compound having 10 or more and less than 20 is denoted as A)
3 | CC[C@H](C)[C@@H]1NC(=O)[C@H](CC(C)C)N(C)C(=O)C[C@@H](C(=O)N(CC)CC)N(C)C(=O)[C@H](C2CCCC2)N(C)C(=O)C2(CCC2)NC(=O)[C@@H]2C[C@@H](C)CN2C(=O)[C@H](CCc2ccc(C(F)(F)F)c(OC)c2)NC(=O)CN(C)C(=O)[C@H](Cc2ccc(C)cc2)N2CC/C=C\C[C@@H](C2=O)N(C)C(=O)CN(C)C1=O [PP1849] | 37.1 | A (a compound having 10 or more and less than 20 is denoted as A) | A (a compound having 10 or more and less than 20 is denoted as A)
4 | CCCN1C(=O)C[C@@H](C(=O)N(C)C)N(C)C(=O)[C@H](C2CCCC2)N(C)C(=O)C2(CCC2)NC(=O)[C@@H]2C[C@@H](OCC)CN2C(=O)[C@H](CCc2cc(F)c(C(F)(F)F)c(F)c2)NC(=O)CN(C)C(=O)[C@H](Cc2ccc(C(F)(F)F)cc2)N2CC/C=C\C[C@@H](C2=O)N(C)C(=O)CN(C)C(=O)[C@H]([C@@H](C)CC)NC(=O)[C@@H]1CC(C)C [PP1825] | 8 | A (a compound having 10 or more and less than 20 is denoted as A) | A (a compound having 10 or more and less than 20 is denoted as A)
5 | CC[C@H](C)[C@@H]1NC(=O)[C@H](CC(C)C)N(C)C(=O)C[C@@H](C(=O)N(C)C)N(C)C(=O)[C@H](C2CCCC2)N(C)C(=O)C2(CCC2)NC(=O)[C@@H]2C[C@H](C)CN2C(=O)[C@H](CCc2ccc(C(F)(F)F)c(OC)c2)NC(=O)CN(C)C(=O)[C@H](Cc2ccc(C)cc2)N2CC/C=C\C[C@@H](C2=O)N(C)C(=O)CN(C)C1=O [PP1865] | 36 | B (a compound having 3 or more and less than 10 is denoted as B) | A (a compound having 10 or more and less than 20 is denoted as A)
6 | CC[C@H](C)[C@@H]1NC(=O)[C@H](C2CC2)N(C)C(=O)C[C@@H](C(=O)N(C)C)N(C)C(=O)[C@H](C2CCCC2)N(C)C(=O)C2(CCC2)N(C)C(=O)[C@@H]2C[C@@H](C)CN2C(=O)[C@H](CCc2cc(F)c(C(F)(F)F)c(F)c2)NC(=O)CN(C)C(=O)[C@H](Cc2ccc(C)cc2)N2CC/C=C\C[C@@H](C2=O)N(C)C(=O)CN(C)C1=O [PP1788] | 6.2 | B (a compound having 3 or more and less than 10 is denoted as B) | B (a compound having 3 or more and less than 10 is denoted as B)
7 | CCO[C@@H]1C[C@H]2C(=O)NC3(CCC3)C(=O)N(C)[C@@H](C3CCCC3)C(=O)N(C)[C@H](C(=O)N(C)CC)CC(=O)N(C)[C@@H](CC3CCC3)C(=O)N[C@@H]([C@@H](C)CC)C(=O)N(C)CC(=O)N(C)[C@H]3C/C=C\CCN(C3=O)[C@@H](Cc3ccc(C(F)(F)F)cc3)C(=O)N(C)CC(=O)N[C@@H](CCc3cc(F)c(C(F)(F)F)c(F)c3)C(=O)N2C1 [PP1667] | 2 | A (a compound having 10 or more and less than 20 is denoted as A) | A (a compound having 10 or more and less than 20 is denoted as A)
8 | CCC[C@H]1C(=O)N[C@@H]([C@@H](C)CC)C(=O)N(C)CC(=O)N(C)[C@H]2C/C=C\CCN(C2=O)[C@@H](Cc2ccc(C)cc2)C(=O)N(C)CC(=O)N[C@@H](CCc2ccc(C(F)(F)F)c(OC)c2)C(=O)N2C[C@@H](C)C[C@H]2C(=O)NC2(CC(C)(C)C2)C(=O)N(C)[C@@H](C2CCCC2)C(=O)N(C)[C@H](C(=O)N(C)C)CC(=O)N1C [PP1888] | 3.5 | B (a compound having 3 or more and less than 10 is denoted as B) | A (a compound having 10 or more and less than 20 is denoted as A)
9 | CCCN(C)C(=O)[C@@H]1CC(=O)N(C)[C@@H](CC)C(=O)N[C@@H]([C@@H](C)CC)C(=O)N(C)CC(=O)N(C)[C@H]2C/C=C\CCN(C2=O)[C@@H](Cc2ccc(C(F)(F)F)cc2)C(=O)N(C)CC(=O)N[C@@H](CCc2ccc(C(F)(F)F)c(OC)c2)C(=O)N2C[C@H](OCC)C[C@H]2C(=O)NC2(CC(C)(C)C2)C(=O)N(C)[C@@H](C2CCCC2)C(=O)N1C [PP1654] | 2.5 | A (a compound having 10 or more and less than 20 is denoted as A) | A (a compound having 10 or more and less than 20 is denoted as A)
10 | CCC[C@H]1C(=O)N[C@@H]([C@@H](C)CC)C(=O)N(C)CC(=O)N(C)[C@H]2C/C=C\CCN(C2=O)[C@@H](Cc2ccc(C)cc2)C(=O)N(C)CC(=O)N[C@@H](CCc2ccc(C(F)(F)F)c(OC)c2)C(=O)N2C[C@H](C)C[C@H]2C(=O)NC2(CCC2)C(=O)N(C)[C@@H](C2CCCC2)C(=O)N(C)[C@H](C(=O)N(C)C)CC(=O)N1C [PP1859] | 28.8 | A (a compound having 10 or more and less than 20 is denoted as A) | A (a compound having 10 or more and less than 20 is denoted as A)
11 | CC[C@H](C)[C@@H]1NC(=O)[C@H](CC2CC2)N(C)C(=O)C[C@@H](C(=O)N(C)C)N(C)C(=O)[C@H](C2CCCC2)N(C)C(=O)C2(CCC2)NC(=O)[C@@H]2C[C@H](C)CN2C(=O)[C@H](CCc2ccc(C(F)(F)F)c(OC)c2)NC(=O)CN(C)C(=O)[C@H](Cc2ccc(C)cc2)N2CC/C=C\C[C@@H](C2=O)N(C)C(=O)CN(C)C1=O [PP1861] | 25.7 | B (a compound having 3 or more and less than 10 is denoted as B) | A (a compound having 10 or more and less than 20 is denoted as A)

Second part, led by results:

Row | IC50 [2] [nM] | SMILES | HRAS/KRAS (KD ratio) [1] | NRAS/KRAS (KD ratio) [3]
12 | 2.7 | CCO[C@@H]1C[C@H]2C(=O)NC3(CCC3)C(=O)N(C)[C@@H](C3CCCC3)C(=O)N(C)[C@H](C(=O)N(C)CC)CC(=O)N(C)[C@@H](C3CCC3)C(=O)N[C@@H]([C@@H](C)CC)C(=O)N(C)CC(=O)N(C)[C@H]3C/C=C\CCN(C3=O)[C@@H](Cc3ccc(C(F)(F)F)cc3)C(=O)N(C)CC(=O)N[C@@H](CCc3ccc(C(F)(F)F)c(OC)c3)C(=O)N2C1 [PP2022] | A (a compound having 10 or more and less than 20 is denoted as A) | A (a compound having 10 or more and less than 20 is denoted as A)
13 | 15.1 | CC[C@H](C)[C@@H]1NC(=O)[C@H](CC2CC2)N(C)C(=O)C[C@@H](C(=O)N(C)CC)N(C)C(=O)[C@H](C2CCCC2)N(C)C(=O)C2(CC(C)(C)C2)NC(=O)[C@@H]2C[C@H](C)CN2C(=O)[C@H](CCc2ccc(C(F)(F)F)c(OC)c2)NC(=O)CN(C)C(=O)[C@H](Cc2ccc(C)cc2)N2CC/C=C\C[C@@H](C2=O)N(C)C(=O)CN(C)C1=O [PP1899] | B (a compound having 3 or more and less than 10 is denoted as B) | A (a compound having 10 or more and less than 20 is denoted as A)
14 | 14 | CCCOC[C@H]1C(=O)N[C@@H]([C@@H](C)CC)C(=O)N(C)CC(=O)N(C)[C@H]2C/C=C\CCN(C2=O)[C@@H](Cc2ccc(C(F)(F)F)cc2)C(=O)N(C)CC(=O)N[C@@H](CCc2ccc(C(F)(F)F)c(OC)c2)C(=O)N2C[C@@H](C)C[C@H]2C(=O)NC2(CCC2)C(=O)N(C)[C@@H](C2CCCC2)C(=O)N(C)[C@H](C(=O)N(C)CC)CC(=O)N1C [PP2027] | B (a compound having 3 or more and less than 10 is denoted as B) | A (a compound having 10 or more and less than 20 is denoted as A)
15 | 13.4 | CCCN(C)C(=O)[C@@H]1CC(=O)N(C)[C@@H](COCC)C(=O)N[C@@H]([C@@H](C)CC)C(=O)N(C)CC(=O)N(C)[C@H]2C/C=C\CCN(C2=O)[C@@H](Cc2ccc(C(F)(F)F)cc2)C(=O)N(C)CC(=O)N[C@@H](CCc2ccc(C(F)(F)F)c(OC)c2)C(=O)N2C[C@@H](C)C[C@H]2C(=O)NC2(CCC2)C(=O)N(C)[C@@H](C2CCCC2)C(=O)N1C [PP2025] | B (a compound having 3 or more and less than 10 is denoted as B) | A (a compound having 10 or more and less than 20 is denoted as A)
16 | 16.1 | CCCN(C)C(=O)[C@@H]1CC(=O)N(C)[C@@H](C2CCC2)C(=O)N[C@@H]([C@@H](C)CC)C(=O)N(C)CC(=O)N(C)[C@H]2C/C=C\CCN(C2=O)[C@@H](Cc2ccc(C(F)(F)F)cc2)C(=O)N(C)CC(=O)N[C@@H](CCc2cc(F)c(C(F)(F)F)c(F)c2)C(=O)N2C[C@H](OCC)C[C@H]2C(=O)NC2(CCC2)C(=O)N(C)[C@@H](C2CCCC2)C(=O)N1C [PP1998] | B (a compound having 3 or more and less than 10 is denoted as B) | A (a compound having 10 or more and less than 20 is denoted as A)
17 | 10.5 | CCCN(C)C(=O)[C@@H]1CC(=O)N(C)[C@@H](C2CCC2)C(=O)N[C@@H]([C@@H](C)CC)C(=O)N(C)CC(=O)N(C)[C@H]2C/C=C\CCN(C2=O)[C@@H](Cc2ccc(C(F)(F)F)cc2)C(=O)N(C)CC(=O)N[C@@H](CCc2ccc(C(F)(F)F)c(OC)c2)C(=O)N2C[C@H](OCC)C[C@H]2C(=O)NC2(CCC2)C(=O)N(C)[C@@H](C2CCCC2)C(=O)N1C [PP2023] | B (a compound having 3 or more and less than 10 is denoted as B) | A (a compound having 10 or more and less than 20 is denoted as A)
